Results published in PMC3265452 (PLoS Neglected Tropical Diseases, 2012).
Structures can show the parent of a compound that is named as a salt.

The compounds below were run against AaDOP2 (Aedes aegypti, UniProt H6D5H2) (assay: AaDOP2 antagonist screen of the LOPAC1280 library (HEK-CRELuc-Aadop2 cells, luminescence)). Details: not given.
Assay type: cell-based

AaDOP2, sequence (H6D5H2 1-476): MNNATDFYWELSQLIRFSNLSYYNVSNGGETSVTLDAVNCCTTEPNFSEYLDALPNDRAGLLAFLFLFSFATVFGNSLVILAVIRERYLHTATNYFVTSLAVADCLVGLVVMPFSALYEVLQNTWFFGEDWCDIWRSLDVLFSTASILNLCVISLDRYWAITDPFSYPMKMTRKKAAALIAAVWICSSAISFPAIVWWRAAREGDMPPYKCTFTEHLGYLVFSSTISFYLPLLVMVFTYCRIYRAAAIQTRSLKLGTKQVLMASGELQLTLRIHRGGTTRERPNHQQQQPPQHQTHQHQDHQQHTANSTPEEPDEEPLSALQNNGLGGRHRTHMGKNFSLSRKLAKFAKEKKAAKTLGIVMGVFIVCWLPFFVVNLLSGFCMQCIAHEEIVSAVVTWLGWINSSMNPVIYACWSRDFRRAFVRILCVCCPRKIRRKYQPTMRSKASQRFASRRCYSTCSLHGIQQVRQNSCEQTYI

Compound | Compound effect (percent receptor signaling in presence of test compound, relative lux units relative to the SCH23390 control)
CCCCCCCCCCCCC/C=C/[C@@H](O)[C@@H](N)CO [Compound 1105, Sphingosine] | 106
CC1CCN(CC[C@H]2CCCN2S(=O)(=O)c2cccc(O)c2)CC1.Cl [Compound 1106, SB 269970 hydrochloride] | 98
O=C(CCCN1CCC2(CC1)C(=O)NCN2c1ccccc1)c1ccc(F)cc1 [Compound 1107, Spiperone hydrochloride] | 29
O=C(O)c1ccccc1Nc1cccc(OCc2ccc3ccccc3n2)c1 [Compound 1108, SR 2640] | 91
CCN1CCC[C@H]1CNC(=O)c1cc(S(N)(=O)=O)ccc1OC [Compound 1109, (-)-Sulpiride] | 87
COc1ccc(CCCOC(Cn2ccnc2)c2ccc(OC)cc2)cc1 (centres unmarked) [Compound 1110, SKF 96365] | 68
CC#CCOC(=O)c1c(C)nc2sc3c(c2c1N)CCC(O)C3 (centres unmarked) [Compound 1112, SB 205384] | 81
CCCCCCCCCCCCCCCCCCNC(=O)OCC(COP(=O)([O-])OCC[n+]1ccsc1)OC (centres unmarked) [Compound 1114, CV-3988] | 101
CC1=C(CC(=O)O)c2cc(F)ccc2/C1=C\c1ccc([S+](C)[O-])cc1 (centres unmarked) [Compound 1115, Sulindac] | 107
C[N+](C)(C)CCOC(=O)CCC(=O)OCC[N+](C)(C)C [Compound 1116, Succinylcholine chloride] | 94
CC(C)(C)NCC(O)c1ccc(O)c(CO)c1 (centres unmarked) [Compound 1117, Salbutamol] | 107
OCc1cc(C(O)CNCCCCCCOCCCCc2ccccc2)ccc1O (centres unmarked) [Compound 1118, Salmeterol] | 104
C[N+]1(C)[C@@H]2C[C@@H](OC(=O)[C@H](CO)c3ccccc3)C[C@H]1[C@@H]1O[C@@H]12 [Compound 1120, (-)-Scopolamine methyl bromide] | 114
CN(C)c1ccc(/C=C2\C(=O)Nc3ccccc32)cc1 [Compound 1121, SU 4312] | 51
CCc1ccccc1OC[C@@H](O)CN[C@H]1CCCc2ccccc21.O=C(O)C(=O)O [Compound 1122, SR 59230A oxalate] | 75
Cl.O=C(Cc1ccc(Cl)c(Cl)c1)N1CCCCC1CN1CCCC1 (centres unmarked) [Compound 1123, BRL 52537 hydrochloride] | 97
Cc1ccc(O)c(N=Nc2ccccc2)n1 [Compound 1125, SIB 1757] | 46
Cc1cccc(/C=C/c2ccccc2)n1 [Compound 1126, SIB 1893] | 83
Cl.c1ccc2c(N3CCNCC3)cccc2c1 [Compound 1127, 1-(1-Naphthyl)piperazine hydrochloride] | 79
O=C(c1ccc(F)cc1)C1CCN(CCn2c(=O)[nH]c3ccccc3c2=O)CC1 [Compound 1128, Ketanserin tartrate] | 53
COc1ccccc1N1CCNCC1.Cl [Compound 1129, 1-(2-Methoxyphenyl)piperazine hydrochloride] | 64
Nc1ccc(CCN2CCN(c3cccc(C(F)(F)F)c3)CC2)cc1 [Compound 1130, PAPP] | 66

Compound | Compound effect (percent receptor signaling in presence of test compound, relative lux units relative to the SCH23390 control)
O=C1NCN(c2ccccc2)C12CCN(CC1COc3ccccc3O1)CC2 (centres unmarked) [Compound 1131, Spiroxatrine] | 90
Br.COc1ccc(-c2ccc(=N)n(CCCC(=O)O)n2)cc1 [Compound 1132, SR-95531] | 101
Cc1ccc(C(=O)Nc2ccc(S(=O)(=O)O)c3cc(S(=O)(=O)O)cc(S(=O)(=O)O)c23)cc1NC(=O)c1cccc(NC(=O)Nc2cccc(C(=O)Nc3cc(C(=O)Nc4ccc(S(=O)(=O)O)c5cc(S(=O)(=O)O)cc(S(=O)(=O)O)c45)ccc3C)c2)c1 [Compound 1135, Suramin hexasodium] | 112
Nc1ncnc2c1ncn2C1CCCO1 (centres unmarked) [Compound 1136, SQ 22536] | 120
C[C@H](O)C(=O)C1=Nc2c(nc(N)[nH]c2=O)NC1 [Compound 1137, Sepiapterin] | 110
Cl.Cn1ccc2cc3c(cc21)CCN3C(=O)Nc1cccnc1 [Compound 1141, SB 206553 hydrochloride] | 73
N[C@@H](Cc1c[nH]c2ccccc12)C(=O)O [Compound 1143, L-Tryptophan] | 114
COc1ccc(/C=C/C(=O)Nc2ccccc2C(=O)O)cc1OC [Compound 1144, Tranilast] | 73
CCN(CC)CCNC(=O)c1cc(S(C)(=O)=O)ccc1OC [Compound 1145, Tiapride hydrochloride] | 96
NCCS(=O)(=O)O [Compound 1146, Taurine] | 101
CCCCNC(=O)NS(=O)(=O)c1ccc(C)cc1 [Compound 1148, Tolbutamide] | 112
Clc1cnc(Oc2ccc(Oc3ncc(Cl)cc3Cl)cc2)c(Cl)c1 [Compound 1150, TCPOBOP] | 91
CC(C)NP(=O)(NC(C)C)OP(=O)(NC(C)C)NC(C)C [Compound 1151, Tetraisopropyl pyrophosphoramide] | 111
c1ccc(C2CN3CCSC3=N2)cc1 (centres unmarked) [Compound 1152, Tetramisole hydrochloride] | 118
OC(CCN1CCCCC1)(c1ccccc1)C1CCCCC1 (centres unmarked) [Compound 1153, Trihexyphenidyl hydrochloride] | 92
Cn1c(=O)c2[nH]cnc2n(C)c1=O [Compound 1154, Theophylline] | 98
NC/C=C/C(=O)O [Compound 1155, (E)-4-amino-2-butenoic acid] | 126
CCCCCCCCCCCCCCSCC(=O)O [Compound 1156, Tetradecylthioacetic acid] | 101
COc1cc2c(cc1OC)-c1c/c(=N\c3c(C)cc(C)cc3C)n(C)c(=O)n1CC2 [Compound 1157, Trequinsin hydrochloride] | 133
CC(C)(C)c1cc(/C=C(\C#N)C(N)=S)cc(C(C)(C)C)c1O [Compound 1158, Tyrphostin AG 879] | 33
CC[N+](CC)(CC)CC [Compound 1159, Tetraethylammonium chloride] | 108

Same assay, conditions: 10 µM compound, 300 nM dopamine, 2 hr

Compound | % of the SCH23390 effect (percent inhibition of receptor response relative to the SCH23390 control) [%]
CN1CCN(CC/C=C2/c3ccccc3Sc3ccc(S(=O)(=O)N(C)C)cc32)CC1.Cl [Compound 1147, Thiothixene hydrochloride] | 86

Same assay, conditions: 10 µM compound, 300 nM dopamine, 2 hr; hit = compound effect <20

Compound | Compound effect (percent receptor signaling in presence of test compound, relative lux units relative to the SCH23390 control) [%]
Cl.O=C(O)C1CCCN(CCC=C(c2ccccc2)c2ccccc2)C1 (centres unmarked) [Compound 1124, SKF 89976A hydrochloride] | 95
CN(C)CCCCSC(=N)N.Cl.Cl [Compound 1134, SKF 91488 dihydrochloride] | 89
COc1cc2c(cc1OC)[C@@H](c1ccccc1)CN(C)CC2.O=C(O)/C=C\C(=O)O [Compound 1138, R(-)-SCH-12679 maleate] | 36
CCN(CC)CCOC(=O)c1cc(Cl)c(N)cc1OC.Cl [Compound 1140, SDZ-205,557 hydrochloride] | 96
CN1CCN(CC/C=C2/c3ccccc3Sc3ccc(S(=O)(=O)N(C)C)cc32)CC1.Cl [Compound 1147, Thiothixene hydrochloride] | 14
CCN(CC)C(=S)SSC(=S)N(CC)CC [Compound 1149, Tetraethylthiuram disulfide] | 89
